Experiments:
[1] = test system: rat lens organ culture; assay: Glucose-induced toxicity in rat lens organ culture (RLCE); assay type: cell-based; conditions: 50 mM glucose, 4 mM MSM, 0.5 mM EDTA
Procedure: Animals. Male Sprague-Dawley rats weighing 200-250 g were obtained from Central Animal Care Services at the University of Texas Medical Branch. The NIH guidelines and ARVO statement for the Use of Animals in Ophthalmic and Vision Research were strictly followed for the welfare of the animals. Rats were sacrificed with using 100% carbon dioxide at a low flow rate (25-30% of the volume of the cage per minute) with two rats in a cage. After the rats stopped breathing for about 2 minutes, the eyeballs were removed. […] Experimental Procedure. 1. Sacrificed four rats, removed the eyeballs as soon as possible and put them into a tube containing PBS with 0.1% gentamicin. 2. Dissected the lenses immediately and washed with 1% penicillin/streptomycin in sterile with PBS. 3. Transferred each lens to a well of a 12-well plate (2 ml of medium per well, i.e., per lens). Each treatment was performed in 2 wells. The lenses were cultured in medium 199 containing 0.1% gentamicin at 37° C. in a 5% CO2 humidified atmosphere. Reagents as described above were added to three groups of two wells to give the following three treatments: • 50 mM glucose • 50 mM glucose+4 mM MSM • 50 mM glucose+4 mM MSM+0.5 mM EDTA One group of two wells was left untreated as a control. […] Photographs were taken using a Multidimensional Imaging System, and the level of light transparency through the lenses was determined

[2] = test system: Human lens epithelial cells (HLEC); assay: Viability of human lens epithelial cells subjected to glucose-induced toxicity (Trypan Blue); assay type: cell-based; conditions: 50 mM glucose; 4 mM MSM, 0.5 mM EDTA; 16 hrs; glucose alone decreased viability by 30%
Procedure: Cell Culture and Treatment. Human lens epithelial […] extended life span were cultured in DMEM medium containing 0.1% gentamicin and supplemented with 20% fetal bovine serum at 37° C. in a 5% CO2-humidified atmosphere. 1.0×10^5 […] (Passage 5) were seeded in 12-well plate overnight prior to the addition of glucose, MSM or MSM/EDTA. The wells were divided into six groups of two wells. Cell viability. Cell survival was determined by Trypan Blue staining and counted with a hemocytometer. Dead cells stain blue, while live cells exclude Trypan Blue. Cell viability is represented as a percentage corresponding to the number of live cells divided by the total cells. […] DMEM+20% FBS+0.1% gentamicin • 400 mM MSM: 376 mg/10 ml PBS for stock • 50 mM EDTA (Tetrasodium Salt): 190 mg/10 ml PBS for stock, pH 7.2 • 5 M Glucose: 1800 mg/10 ml of dd H2O Experimental Procedure. 1. Seeded 0.5×10^5/ml of HLEC (Passage 5) into three 12-well plates, then incubated at 37° C. overnight. 2. Changed medium to 2% FBS DMEM medium. 3. […] They were harvested with 0.25% Trypsin-EDTA and cell viability was determined with Trypan-Blue.

[3] = at 79° F.; cited from earlier work

SMILES: CS(C)(=O)=O [MSM, methylsulfonylmethane]
- lens opacification by glucose (photographs, FIG. 2) ([1]; seven days of culture): mitigated lens opacification
- light transmission through the lens, relative to the untreated control (FIG. 3) ([1]; seven days, glucose alone 45%): 68%
- percent cell viability (FIG. 6) [2]: increased the percent cell viability
- water solubility [3]: 34 % w/v

— patent US20100069335A1, “Prevention and Treatment of Ophthalmic Complications of Diabetes” (priority 2005, published 2010)
